Experiments:
Type in all cases: cell-based
[1] = tested on: Staphlococcus saprophyticus; assay: paper disc diffusion susceptibility (Kirby-Bauer) method; conditions: for change of zone of inhibition when lupulone was added: Experiment 1, 0.2 μg/ml β-resin versus antibiotic alone; for zone of inhibition, Experiment 1 Control / zone of inhibition, Experiment 2 Control: antibiotic disc alone; for zone of inhibition, Experiment 1 Control / zone of inhibition, Experiment 2 Control / zone of inhibition, Experiment 1 0.2 μg/ml β-resin / zone of inhibition, Experiment 2 0.2 μg/ml β-resin: 24 hours; for zone of inhibition, Experiment 1 0.2 μg/ml β-resin / zone of inhibition, Experiment 2 0.2 μg/ml β-resin: antibiotic disc with 0.2 μg/ml β-resin in the agar; for zone of inhibition, Xanthohumol Avg / zone of inhibition, Xanthohumol Expt #1 / zone of inhibition, Xanthohumol Expt #2: S. saprophyticus, ciprofloxacin 5 μg on disc
Description: (§1) The first test method to be applied was the paper disc diffusion susceptibility method. In this method a filter paper disc impregnated with a chemical is placed on agar, and the chemical will diffuse from the disc into the agar. If an organism is placed on the agar, it will not grow in the area around the disc if it is susceptible to the chemical. This area of no growth around the disc is known as the zone of inhibition. This disc diffusion method for antibiotic susceptibility is known as the Kirby-Bauer method. In testing the effectiveness of various antibiotics, all factors, e.g., the agar utilized, the depth of the agar, the amount of organism used, and incubation conditions, are maintained constant for the various organisms and antibiotics being tested. […] The size of the zone of inhibition of the particular antimicrobial substance may also be influenced by the diffusion capability of that substance.
(§2) In performing the disc diffusion method tests, a bacterial suspension having an inoculum density of approximately 1×10^8 CFU/ml (colony forming units) was added to 10 ml trypticase soy agar at 46° C. It was mixed thoroughly by vortexing and then poured into a plastic Petri dish. After hardening of the agar, filter paper discs (φ7 mm.) made from Whatman filter paper No. 1 that had been impregnated by the manufacturer, Becton Dickinson, Inc., with the suitable antibiotic, were placed on the agar. In this series of tests the ability of each antibiotic per se to control the growth of the bacteria was measured.
(§3) Another series of agar containing Petri dishes was then prepared using the same bacteria and density thereof as had been prepared for the prior test series. However, here hop compounds were also present in the agar. The hop extract, either lupulone, humulone or xanthohumol, was dissolved in ethanol. While certain of the hop components are only slightly soluble in water, they are very soluble in ethanol. An ethanol control was prepared in the same way.
(§4) The size of the inhibition zones was measured to the nearest mm.
(§5) The concentration of β-acid and xanthohumol is set forth in μg/ml. The zone of inhibition was measured in centimeters. […]

[2] = tested on: S. saprophyticus; assay: minimum inhibitory concentration (MIC) method; conditions: 37° C. 24 hours
Procedure: Another method of determining antimicrobial activity is to assess the Minimum inhibitory concentration (MIC) of the composition under test. […] Thereafter, increased concentrations will have a limiting effect on growth, until the concentration is reached where no growth relative to the control is observed. That point of no growth is the minimum inhibitory concentration. […] A positive control with the bacterium alone was prepared as well as an ethanol control. The tubes were incubated at 37° C. for 24 hours and growth of the bacterium was determined by observing the change in turbidity. […] Since the filing of the original application Ser. […] Pseudomonas fluorescens, Pseudomonas aeruginosa, Proteus vulgaris, Serratia marcescens, Proteus mirabilis and Enterobacter clocae.

[3] = tested on: B. megaterium; assay: minimum inhibitory concentration (MIC) method; conditions: 37° C. 24 hours
Procedure: (§6) Another method of determining antimicrobial activity is to assess the Minimum inhibitory concentration (MIC) of the composition under test. […] Thereafter, increased concentrations will have a limiting effect on growth, until the concentration is reached where no growth relative to the control is observed. That point of no growth is the minimum inhibitory concentration. […] A positive control with the bacterium alone was prepared as well as an ethanol control. The tubes were incubated at 37° C. for 24 hours and growth of the bacterium was determined by observing the change in turbidity.

[4] = tested on: S. salivarius; assay: minimum inhibitory concentration (MIC) method; conditions: 37° C. 24 hours
Procedure: as §6

[5] = tested on: B. megaterium; assay: paper disc diffusion susceptibility method; conditions: ciprofloxacin 5 μg on disc
Description: as §1, §2, §3, §4, §5

[6] = tested on: B. subtilis; assay: paper disc diffusion susceptibility method; conditions: ciprofloxacin 5 μg on disc
Description: as §1, §2, §3, §4, §5

[7] = tested on: S. salivarius; assay: paper disc diffusion susceptibility method; conditions: ciprofloxacin 5 μg on disc
Description: as §1, §2, §3, §4, §5

O=C(N[C@H](CO)[C@H](O)c1ccc([N+](=O)[O-])cc1)C(Cl)Cl [CHLORAMPHENICOL, chloramphenicol]
change of zone of inhibition when lupulone was added [1]: decline
zone of inhibition, Experiment 1 Control [1]: 29 mm
zone of inhibition, Experiment 2 Control [1]: 25 mm
zone of inhibition, Experiment 1 0.2 μg/ml β-resin [1]: 27 mm
zone of inhibition, Experiment 2 0.2 μg/ml β-resin [1]: 25 mm

polymyxin B
MIC, agent alone ([2]; exp 1): >100 µg/mL
MIC, agent alone ([2]; exp 2): >100 µg/mL
zone of inhibition, Experiment 1 Control [1]: 0 mm
zone of inhibition, Experiment 2 Control [1]: 0 mm
zone of inhibition, Experiment 1 Control ([1]; listed as polymyxin B): no inhibition zone whatsoever
zone of inhibition, Experiment 2 Control ([1]; listed as polymyxin B): zero
zone of inhibition, Experiment 1 0.2 μg/ml β-resin [1]: 9 mm
zone of inhibition, Experiment 2 0.2 μg/ml β-resin [1]: 8 mm
MIC, agent alone ([3]; exp 1): >100 µg/mL
MIC, agent alone ([3]; exp 2): >100 µg/mL
MIC, agent alone ([4]; exp 1): >100 µg/mL
MIC, agent alone ([4]; exp 2): >100 µg/mL

O=C(O)c1cn(C2CC2)c2cc(N3CCNCC3)c(F)cc2c1=O [ciprofloxacin, 1-cyclopropyl-6-fluoro-1,4-dihyro-4-oxo-7-(1-piperaznyl)-3-quinolinecarboxylic acid]
zone of inhibition, Xanthohumol Avg ([5]; xanthohumol 0 μg/ml): 0.75 centimeters
zone of inhibition, Xanthohumol Expt #1 ([5]; xanthohumol 0 μg/ml): 0.8 centimeters
zone of inhibition, Xanthohumol Expt #2 ([5]; xanthohumol 0 μg/ml): 0.7 centimeters
zone of inhibition, Xanthohumol Avg ([5]; xanthohumol 3 μg/ml): 1.75 centimeters
zone of inhibition, Xanthohumol Expt #1 ([5]; xanthohumol 3 μg/ml): 1.6 centimeters
zone of inhibition, Xanthohumol Expt #2 ([5]; xanthohumol 3 μg/ml): 1.9 centimeters
zone of inhibition, Xanthohumol Avg ([6]; xanthohumol 0 μg/ml): 1.0 centimeters
zone of inhibition, Xanthohumol Expt #1 ([6]; xanthohumol 0 μg/ml): 1.1 centimeters
zone of inhibition, Xanthohumol Expt #2 ([6]; xanthohumol 0 μg/ml): 0.9 centimeters
zone of inhibition, Xanthohumol Avg ([6]; xanthohumol 3 μg/ml): 1.85 centimeters
zone of inhibition, Xanthohumol Expt #1 ([6]; xanthohumol 3 μg/ml): 2.0 centimeters
zone of inhibition, Xanthohumol Expt #2 ([6]; xanthohumol 3 μg/ml): 1.7 centimeters
zone of inhibition, Xanthohumol Avg ([7]; xanthohumol 0 μg/ml): 0.8 centimeters
zone of inhibition, Xanthohumol Expt #1 ([7]; xanthohumol 0 μg/ml): 0.8 centimeters
zone of inhibition, Xanthohumol Expt #2 ([7]; xanthohumol 0 μg/ml): 0.8 centimeters
zone of inhibition, Xanthohumol Avg ([7]; xanthohumol 10 μg/ml): 2.0 centimeters
zone of inhibition, Xanthohumol Expt #1 ([7]; xanthohumol 10 μg/ml): 1.9 centimeters
zone of inhibition, Xanthohumol Expt #2 ([7]; xanthohumol 10 μg/ml): 2.1 centimeters
zone of inhibition, Xanthohumol Avg ([1]; xanthohumol 0 μg/ml): 0.95 centimeters
zone of inhibition, Xanthohumol Expt #1 ([1]; xanthohumol 0 μg/ml): 0.9 centimeters
zone of inhibition, Xanthohumol Expt #2 ([1]; xanthohumol 0 μg/ml): 1.0 centimeters
zone of inhibition, Xanthohumol Avg ([1]; xanthohumol 3 μg/ml): 1.5 centimeters
zone of inhibition, Xanthohumol Expt #1 ([1]; xanthohumol 3 μg/ml): 1.3 centimeters
zone of inhibition, Xanthohumol Expt #2 ([1]; xanthohumol 3 μg/ml): 1.7 centimeters

[H]/N=C(/N)N[C@H]1[C@H](O)[C@@H](O)[C@H](O[C@@H]2O[C@@H](C)[C@](O)(C=O)[C@H]2O[C@@H]2O[C@@H](CO)[C@H](O)[C@@H](O)[C@@H]2NC)[C@@H](N/C(N)=N\[H])[C@@H]1O [STREPTOMYCIN, streptomycin]
change of zone of inhibition when lupulone was added [1]: remained constant
zone of inhibition, Experiment 1 Control [1]: 15 mm
zone of inhibition, Experiment 2 Control [1]: 15 mm
zone of inhibition, Experiment 1 0.2 μg/ml β-resin [1]: 15 mm
zone of inhibition, Experiment 2 0.2 μg/ml β-resin [1]: 14 mm

CC[C@H]1OC(=O)[C@H](C)[C@@H](O[C@H]2C[C@@](C)(OC)[C@@H](O)[C@H](C)O2)[C@H](C)[C@@H](O[C@@H]2O[C@H](C)C[C@H](N(C)C)[C@H]2O)[C@](C)(O)C[C@@H](C)C(=O)[C@H](C)[C@@H](O)[C@]1(C)O [ERYTHROMYCIN, erythromycin]
change of zone of inhibition when lupulone was added [1]: remained constant
zone of inhibition, Experiment 1 Control [1]: 23 mm
zone of inhibition, Experiment 2 Control [1]: 23 mm
zone of inhibition, Experiment 1 0.2 μg/ml β-resin [1]: 25 mm
zone of inhibition, Experiment 2 0.2 μg/ml β-resin [1]: 23 mm

From patent US8367086B1, “Process and product for inhibiting or preventing bacterial infections” (S.S. Steiner, Inc., priority 2004, dated 2013)
